# Assay results published in the supplement of paper PMC10307832.
# Legend:
# Assay in all cases: relative viability (nuclei count vs DMSO), 5 days (fraction); higher = more cells survive
# [1] = compound: CC1=NN=C(O1)C2=NN=C(C=C2)N3CCC(CC3)OC4=C(C=CC(=C4)F)Cl + Cc1nc(NC(=O)N2CCC[C@H]2C(N)=O)sc1-c1ccnc(C(C)(C)C(F)(F)F)c1 [Alpelisib] (partner 2 µM)
# How it was run: (§1)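 Lung cancer cell lines in 1536-well plates got either a single drug or a fixed anchor-drug dose together with five library-drug doses (not always all listed) in √10 steps, by pin tool, on the day after seeding. Nuclei were counted after 5 days, and relative viability is the treated-to-vehicle ratio of nuclei counts. Values are medians of duplicate plates.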
# Tosedostat + Palbociclib = compound: CC(C)C[C@@H](C(=O)N[C@H](C(=O)OC1CCCC1)c1ccccc1)[C@H](O)C(=O)NO [Tosedostat] + CC(=O)c1c(C)c2cnc(Nc3ccc(N4CCNCC4)cn3)nc2n(C2CCCC2)c1=O [Palbociclib] (partner 0.5 µM)
# How it was run: as §1
# [2] = compound: CC1=NN=C(O1)C2=NN=C(C=C2)N3CCC(CC3)OC4=C(C=CC(=C4)F)Cl + Nc1ncn([C@H]2C[C@H](O)[C@@H](CO)O2)c(=O)n1 [Decitabine] (partner 2 µM)
# How it was run: as §1
# Tosedostat + Pemetrexed = compound: CC(C)C[C@@H](C(=O)N[C@H](C(=O)OC1CCCC1)c1ccccc1)[C@H](O)C(=O)NO [Tosedostat] + Nc1nc2[nH]cc(CCc3ccc(C(=O)N[C@@H](CCC(=O)O)C(=O)O)cc3)c2c(=O)[nH]1 [Pemetrexed] (partner 0.2 µM)
# How it was run: as §1
Cell Line,relative viability ([1]; first compound 0.253 µM),relative viability ([1]; first compound 0.8 µM),relative viability ([1]; first compound 2.53 µM),relative viability ([1]; first compound 8 µM),relative viability (Tosedostat + Palbociclib; first compound 0.02 µM),relative viability (Tosedostat + Palbociclib; first compound 0.06325 µM),relative viability (Tosedostat + Palbociclib; first compound 0.2 µM),relative viability (Tosedostat + Palbociclib; first compound 0.6325 µM),relative viability (Tosedostat + Palbociclib; first compound 2 µM),relative viability ([2]; first compound 0.253 µM),relative viability ([2]; first compound 0.8 µM),relative viability ([2]; first compound 2.53 µM),relative viability ([2]; first compound 8 µM),relative viability (Tosedostat + Pemetrexed; first compound 0.02 µM),relative viability (Tosedostat + Pemetrexed; first compound 0.06325 µM),relative viability (Tosedostat + Pemetrexed; first compound 0.2 µM),relative viability (Tosedostat + Pemetrexed; first compound 0.6325 µM),relative viability (Tosedostat + Pemetrexed; first compound 2 µM)
RERF-LC-KJ,0.765,0.695,0.839,0.781,1.23,1.04,0.845,0.755,0.859,0.574,0.561,0.52,0.521,0.49,0.499,0.51,0.486,0.466
HCC-15,0.661,0.578,0.582,0.584,0.759,0.688,0.572,0.708,0.653,0.497,0.5,0.493,0.457,0.234,0.221,0.213,0.243,0.249
NCI-H1666,0.672,0.738,0.846,0.792,0.589,0.696,0.61,0.601,0.657,0.561,0.674,0.69,0.534,0.888,0.831,0.88,0.991,0.963
LCLC-103H,0.792,0.946,0.775,0.776,0.447,0.483,0.456,0.504,0.486,0.491,0.694,0.552,0.435,0.507,0.522,0.533,0.494,0.57
NCI-H650,1.17,0.948,1,0.986,0.31,0.342,0.291,0.35,0.295,0.334,0.331,0.336,0.285,1.01,0.846,0.895,0.873,0.804
EPLC-272H,0.925,,1.14,0.917,0.337,0.311,0.348,0.303,0.248,0.361,0.366,0.4,0.374,0.47,0.269,0.306,0.241,0.142
